Laboratory results as given in patent US20250085283A1, “METHOD FOR QUANTIFYING NICOTINAMIDE ADENINE DINUCLEOTIDE (NAD+) OR NICOTINAMIDE MONONUCLEOTIDE (NMN), AND KIT AND FILTER PAPER FOR PERFORMING THE METHOD” (Teijin Limited, priority 2022, published 2025).

Experiments:
Type in all cases: physicochemical, human
[1] = Storage stability of extract solution (frozen storage 71 days); details: frozen 71 days, vs storage 0 days
Text: A filter paper with added blood derived from a test subject is brought into contact with a solvent (extraction buffer) to obtain the solvent after contact (hereinafter may be abbreviated as extract solution), which storage stability was investigated.
A part of the blood extract solution (100% water) from the filter paper obtained and stored in Example 2 (15 days of chilled storage) and a part of the solution for LC-MS/MS measurement (water containing 67% acetonitrile) were frozen-stored. After 71 days of frozen storage, the supernatant of the former obtained by adding twice the amount of acetonitrile thereto, mixing and centrifuging (24,250×g, 10 minutes, 4° C.), and the supernatant of the latter obtained by centrifuging (24,250×g, 10 minutes, 4° C.) the solution after storage were both measured by LC-MS/MS under the same conditions as in Example 2.

[2] = Chilled storage stability of NAD+ and NMN in blood spotted on filter paper (DBS, LC-MS/MS); details: for Storage stability (mean): vs storage 0 days
Description: A filter paper, to which blood derived from a test subject is added (i.e., corresponding to a filter paper in Step 1 of the present invention), was searched for the optimal one for quantifying NAD+ and NMN when the filter paper with added blood derived from the test subject is stored in the refrigerator for a certain period of time.
From 5 subjects (adult men and women) per test, approximately 120 μL of blood (amount of 2 collection containers of the kit) was sampled by self-collection using an Micro Blood Collection Kit (Micro Blood Science Co., Ltd.), and was left to stand on ice until sample processing. The subjects were fasted on the morning of the sampling day, and samplings were performed around 9:00 am. The test was performed four times in total, with a total of 19 people performing evaluations, excluding one person due to insufficient sample blood volume.
The sampled blood was collected into 1.5 mL microtubes for each subject and mixed by gentle pipetting. Four types of filter papers (Whatman FTA DMPK-A Card/GE healthcare, QIAcard FTA DMPK-B Card/QIAGEN, QIAcard FTA DMPK-C Card/QIAGEN, Whatman 903 Protein saver card/Cytiva) were each spotted with 5 μL of blood (dropped/added) at multiple areas, sealed in a moisture absorption standard pouch (Moisture absorption-kun (registered trademark)/Maruto Sangyo Co., Ltd.), and stored in the refrigerator. Next, after chilled storing the blood-spotted filter paper for 2 days, 2 weeks (14 days or 15 days), or 1 month (30 days), the blood-spotted areas were cut out and collected in a 2 mL microtube. After adding 300 μL of a mixed aqueous solution of internal standard substances (NAD+-d4 and NMN-d4/Toronto Research Chemicals, Inc.) thereto and stirring using a vortex mixer, the mixture was mixed with a micromixer (TOMY MICRO TUBE MIXER MT-400, stirring speed 5) for 30 minutes at room temperature. The blood extract solution was dispensed by each 150 μL portion into a microtube, 300 μL of acetonitrile was added thereto, and the mixture was stirred using a vortex mixer, followed by centrifugation (24,250×g, 10 minutes, 4° C.). After centrifugation, 40 μL of the supernatant was dispensed into a vial and measured by LC-MS/MS.
In contrast, as a sample for initial values, 5 μL of blood was collected into a 2 mL microtube (no spotted filter paper), and 300 μL of a mixed aqueous solution of internal standard substances (NAD-d4 and NMN-d4/Toronto Research Chemicals, Inc.) was added thereto and stirred using a vortex mixer, and then the mixture was mixed using a micromixer (TOMY MICRO TUBE MIXER MT-400, stirring speed 5) for 30 minutes at room temperature. The blood extract solution was dispensed by each 150 μL portion into a microtube, 300 μL of acetonitrile was added thereto, and the mixture was stirred using a vortex mixer, followed by centrifugation (24,250×g, 10 minutes, 4° C.). After centrifugation, 40 μL of the supernatant was dispensed into a vial and measured by LC-MS/MS.

[3] = Room temperature storage stability of NAD+ and NMN in blood spotted on filter paper (DBS, LC-MS/MS); details: for Storage stability (mean): vs storage 0 days
Description: A filter paper, to which blood derived from a test subject is added (i.e., corresponding to a filter paper in Step 1 of the present invention), was searched for the optimal one for quantifying NAD+ and NMN when the filter paper with added blood derived from the test subject is stored at room temperature for a certain period of time.
A part of the blood spotted-filter paper prepared in Example 2 was sealed in a moisture absorption standard pouch (Moisture absorption-kun (registered trademark)/Maruto Sangyo Co., Ltd.) and then stored at room temperature. After storage at room temperature for 2 days, 1 week (7 days), or 2 weeks (15 days), the blood-spotted areas were cut out and collected in a 2 mL microtube. After performing the same treatment as in Example 2, measurement by LC-MS/MS was performed under the same conditions as in Example 2.

[4] = human blood on 903 card, chilled storage for 1 month
[5] = human blood on 903 card, chilled storage for 2 weeks
[6] = human blood on 903 card, chilled storage for 2 days
[7] = human blood on DMPK-A card, chilled storage for 1 month
[8] = human blood on DMPK-A card, chilled storage for 2 weeks
[9] = human blood on DMPK-A card, chilled storage for 2 days
[10] = human blood on DMPK-B card, chilled storage for 1 month
[11] = human blood on DMPK-B card, chilled storage for 2 weeks
[12] = human blood on DMPK-B card, chilled storage for 2 days
[13] = human blood on DMPK-C card, chilled storage for 1 month
[14] = human blood on DMPK-C card, chilled storage for 2 weeks
[15] = human blood on DMPK-C card, chilled storage for 2 days
[16] = human blood on 903 card, room temperature storage for 2 weeks
[17] = human blood on 903 card, room temperature storage for 2 days
[18] = human blood on DMPK-A card, room temperature storage for 2 weeks
[19] = human blood on DMPK-A card, room temperature storage for 2 days
[20] = human blood on DMPK-B card, room temperature storage for 1 week
[21] = human blood on DMPK-B card, room temperature storage for 2 weeks
[22] = human blood on DMPK-B card, room temperature storage for 2 days
[23] = human blood on DMPK-C card, room temperature storage for 2 weeks
[24] = human blood on DMPK-C card, room temperature storage for 2 days

With `NC(=O)c1ccc[n+]([C@@H]2O[C@H](COP(=O)([O-])OP(=O)(O)OC[C@H]3O[C@@H](n4cnc5c(N)ncnc54)[C@H](O)[C@@H]3O)[C@@H](O)[C@H]2O)c1` [NAD+, nicotinamide adenine dinucleotide] the “Storage stability (mean)” value ([1]; 903 card chilled 15 days, extract solution 100% water) was 266.3%, the “Storage stability (mean)” value ([1]; 903 card chilled 15 days, extract solution with twice the amount of acetonitrile added) was 92.1% and the “Storage stability (mean)” value ([1]; DMPK-A card chilled 15 days, extract solution 100% water) was 145.8%. The “Storage stability (mean)” value ([1]; DMPK-A card chilled 15 days, extract solution with twice the amount of acetonitrile added) was 89.6%, the “Storage stability (mean)” value ([1]; DMPK-B card chilled 15 days, extract solution 100% water) was 93.1% and the “Storage stability (mean)” value ([1]; DMPK-B card chilled 15 days, extract solution with twice the amount of acetonitrile added) was 100.0%. For the same compound, the “Storage stability (mean)” value ([1]; DMPK-C card chilled 15 days, extract solution 100% water) was 200.6%, the “Storage stability (mean)” value ([1]; DMPK-C card chilled 15 days, extract solution with twice the amount of acetonitrile added) was 73.6% and the “Storage stability, Evaluation” value [2, 4] was “Good: (Good (≥70%))”. The “Storage stability (mean)” value [2, 4] was 82.6%, the “Storage stability, Evaluation” value [2, 5] was “Good: (Good (≥70%))” and the “Storage stability (mean)” value [2, 5] was 77.2%. The “Storage stability, Evaluation” value [2, 6] was “Good: (Good (≥70%))”, the “Storage stability (mean)” value [2, 6] was 74.1% and the “Storage stability, Evaluation” value [2, 7] was “Good: (Good (≥70%))”. For the same compound, the “Storage stability (mean)” value [2, 7] was 71.8%, the “Storage stability, Evaluation” value [2, 8] was “Good: (Good (≥70%))” and the “Storage stability (mean)” value [2, 8] was 79.1%. For the same compound, the “Storage stability, Evaluation” value [2, 9] was “Good: (Good (≥70%))”, the “Storage stability (mean)” value [2, 9] was 81.5% and the “Storage stability, Evaluation” value [2, 10] was “Good: (Good (≥70%))”. For the same compound, the “Storage stability (mean)” value [2, 10] was 79.8%, the “Storage stability, Evaluation” value [2, 11] was “Excellent: (Excellent (≥85%))” and the “Storage stability (mean)” value [2, 11] was 87.8%. The “Storage stability, Evaluation” value [2, 12] was “Good: (Good (≥70%))”, the “Storage stability (mean)” value [2, 12] was 80.7% and the “Storage stability, Evaluation” value [2, 13] was “Average: (Average (≥50%))”. The “Storage stability (mean)” value [2, 13] was 54.3%, the “Storage stability, Evaluation” value [2, 14] was “Average: (Average (≥50%))” and the “Storage stability (mean)” value [2, 14] was 66.6%. The “Storage stability, Evaluation” value [2, 15] was “Good: (Good (≥70%))”, the “Storage stability (mean)” value [2, 15] was 70.1% and the “Storage stability, Evaluation” value [3, 16] was “Average (Average (≥50%))”. For the same compound, the “Storage stability (mean)” value [3, 16] was 50.3%, the “Storage stability, Evaluation” value [3, 17] was “Average (Average (≥50%))” and the “Storage stability (mean)” value [3, 17] was 66.2%. For the same compound, the “Storage stability, Evaluation” value [3, 18] was “Average: (Average (≥50%))”, the “Storage stability (mean)” value [3, 18] was 51.6% and the “Storage stability, Evaluation” value [3, 19] was “Good: (Good (≥70%))”. For the same compound, the “Storage stability (mean)” value [3, 19] was 71.6%, the “Storage stability, Evaluation” value [3, 20] was “Excellent: (Excellent (≥85%))” and the “Storage stability (mean)” value [3, 20] was 87.2%. For the same compound, the “Storage stability, Evaluation” value [3, 21] was “Average: (Average (≥50%))”, the “Storage stability (mean)” value [3, 21] was 67.6% and the “Storage stability, Evaluation” value [3, 22] was “Good: (Good (≥70%))”. For the same compound, the “Storage stability (mean)” value [3, 22] was 82.0%, the “Storage stability, Evaluation” value [3, 23] was “Average (Average (≥50%))” and the “Storage stability (mean)” value [3, 23] was 50.2%. For the same compound, the “Storage stability, Evaluation” value [3, 24] was “Average (Average (≥50%))” and the “Storage stability (mean)” value [3, 24] was 55.9%.
